Values quoted from earlier work, collected in patent US20090016973A1, “Composition and Method for the Prevention of Oral Disease” (MICROPURE, INC., priority 2007, published 2009).

Key:
protein synthesis [1] = settings: Benarde et al., 1967
dehydrogenase enzymes = settings: within the first 5 seconds of reaction; Roller et al., 1986
protein synthesis [2] = settings: Roller et al., 1986
Escherichia coli = settings: Berg et al., 1986; leading to cell death

[O][Cl+][O-] [chlorine dioxide]
effect on protein synthesis (protein synthesis [1]): abrupt inhibition | inhibition of total dehydrogenase enzymes (dehydrogenase enzymes): inhibited completely | inhibition of protein synthesis (protein synthesis [2]): partially inhibited | permeability control of the membrane (Escherichia coli): impaired
